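The compound was tested at five concentrations on cells cultured in 96-well plates, with a 48-hour exposure period. GI50: concentration for 50% inhibition of growth. TGI denotes the concentration required for complete inhibition of growth.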
How the values were obtained:
Assay in all cases: NCI-60 cell line screen, 48 h; in the data active means GI50 below about 0.43 µM; inactive means the rest
786-0 renal = test system: 786-0 renal
A498 renal = test system: A498 renal
A549 NSCLC = test system: A549 NSCLC
ACHN renal = test system: ACHN renal
BT-549 breast = test system: BT-549 breast
CAKI-1 renal = test system: CAKI-1 renal
CCRF-CEM leukemia = test system: CCRF-CEM leukemia
COLO 205 colon = test system: COLO 205 colon
DU-145 prostate = test system: DU-145 prostate
HCC-2998 colon = test system: HCC-2998 colon
HCT-116 colon = test system: HCT-116 colon
HCT-15 colon = test system: HCT-15 colon
HL-60(TB) leukemia = test system: HL-60(TB) leukemia
HOP-62 NSCLC = test system: HOP-62 NSCLC
HOP-92 NSCLC = test system: HOP-92 NSCLC
HS 578T breast = test system: HS 578T breast
HT29 colon = test system: HT29 colon
IGROV1 ovarian = test system: IGROV1 ovarian
K-562 leukemia = test system: K-562 leukemia
KM12 colon = test system: KM12 colon
LOX IMVI melanoma = test system: LOX IMVI melanoma
MALME-3M melanoma = test system: MALME-3M melanoma
MCF7 breast = test system: MCF7 breast
MDA-MB-231 breast = test system: MDA-MB-231 breast
MDA-MB-435 = test system: MDA-MB-435
MOLT-4 leukemia = test system: MOLT-4 leukemia
NCI-H226 lung = test system: NCI-H226 lung
NCI-H23 lung = test system: NCI-H23 lung
NCI-H460 lung = test system: NCI-H460 lung
NCI-H522 lung = test system: NCI-H522 lung
NCI/ADR-RES ovarian = test system: NCI/ADR-RES ovarian
OVCAR-3 ovarian = test system: OVCAR-3 ovarian
OVCAR-4 ovarian = test system: OVCAR-4 ovarian
OVCAR-5 ovarian = test system: OVCAR-5 ovarian
OVCAR-8 ovarian = test system: OVCAR-8 ovarian
PC-3 prostate = test system: PC-3 prostate
RPMI-8226 leukemia = test system: RPMI-8226 leukemia
RXF 393 renal = test system: RXF 393 renal
SF-268 CNS = test system: SF-268 CNS
SF-295 CNS = test system: SF-295 CNS
SF-539 CNS = test system: SF-539 CNS
SK-MEL-2 melanoma = test system: SK-MEL-2 melanoma
SK-MEL-28 melanoma = test system: SK-MEL-28 melanoma
SK-MEL-5 melanoma = test system: SK-MEL-5 melanoma
SK-OV-3 ovarian = test system: SK-OV-3 ovarian
SN12C renal = test system: SN12C renal
SNB-19 CNS = test system: SNB-19 CNS
SNB-75 CNS = test system: SNB-75 CNS
SW-620 colon = test system: SW-620 colon
T-47D breast = test system: T-47D breast
TK-10 renal = test system: TK-10 renal
U251 CNS = test system: U251 CNS
UACC-62 melanoma = test system: UACC-62 melanoma
UO-31 renal = test system: UO-31 renal
EKVX NSCLC = test system: EKVX NSCLC
M14 melanoma = test system: M14 melanoma
UACC-257 melanoma = test system: UACC-257 melanoma

COC(=O)C(N)CSC(c1ccccc1)(c1ccccc1)c1ccccc1 (stereo not drawn)
active: GI50 (HCT-116 colon) 0.418 µM | GI50 (MDA-MB-435) 0.247 µM | GI50 (NCI-H522 lung) 0.334 µM | GI50 (RXF 393 renal) 0.303 µM | GI50 (SF-539 CNS) 0.399 µM
59.6 µM: TGI (HT29 colon)
0.644 µM: TGI (MDA-MB-435)
83.5 µM: TGI (TK-10 renal)
25.4 µM: TGI (MDA-MB-231 breast)
13.2 µM: TGI (HOP-92 NSCLC)
11.7 µM: TGI (RXF 393 renal)
15 µM: TGI (HS 578T breast)
43.8 µM: TGI (NCI-H460 lung)
53.3 µM: TGI (BT-549 breast)
2.22 µM: TGI (NCI-H522 lung)
41.6 µM: TGI (SNB-75 CNS)
inactive: GI50 (786-0 renal) 4.23 µM | GI50 (A498 renal) 0.629 µM | GI50 (A549 NSCLC) 2.93 µM | GI50 (ACHN renal) 0.922 µM | GI50 (BT-549 breast) 2.29 µM | GI50 (CAKI-1 renal) 5.51 µM | GI50 (CCRF-CEM leukemia) 0.636 µM | GI50 (COLO 205 colon) 2.15 µM | GI50 (DU-145 prostate) 3.26 µM | GI50 (HCC-2998 colon) 2.1 µM | GI50 (HCT-15 colon) 2.7 µM | GI50 (HL-60(TB) leukemia) 1.82 µM | GI50 (HOP-62 NSCLC) 48.9 µM | GI50 (HOP-92 NSCLC) 0.436 µM | GI50 (HS 578T breast) 0.512 µM | GI50 (HT29 colon) 3.36 µM | GI50 (IGROV1 ovarian) 9.86 µM | GI50 (K-562 leukemia) 0.63 µM | GI50 (KM12 colon) 2.88 µM | GI50 (LOX IMVI melanoma) 4.48 µM | GI50 (MALME-3M melanoma) 4.7 µM | GI50 (MCF7 breast) 0.445 µM | GI50 (MDA-MB-231 breast) 1.62 µM | GI50 (MOLT-4 leukemia) 4 µM | GI50 (NCI-H226 lung) 5.38 µM | GI50 (NCI-H23 lung) 4.45 µM | GI50 (NCI-H460 lung) 2.42 µM | GI50 (NCI/ADR-RES ovarian) 8.81 µM | GI50 (OVCAR-3 ovarian) 2.97 µM | GI50 (OVCAR-4 ovarian) 15.5 µM | GI50 (OVCAR-5 ovarian) 3.84 µM | GI50 (OVCAR-8 ovarian) 2.53 µM | GI50 (PC-3 prostate) 1.72 µM | GI50 (RPMI-8226 leukemia) 0.676 µM | GI50 (SF-268 CNS) 1.04 µM | GI50 (SF-295 CNS) 2.89 µM | GI50 (SK-MEL-2 melanoma) 0.493 µM | GI50 (SK-MEL-28 melanoma) 3.14 µM | GI50 (SK-MEL-5 melanoma) 0.538 µM | GI50 (SK-OV-3 ovarian) 0.607 µM | GI50 (SN12C renal) 0.863 µM | GI50 (SNB-19 CNS) 1.58 µM | GI50 (SNB-75 CNS) 3.68 µM | GI50 (SW-620 colon) 0.679 µM | GI50 (T-47D breast) 4.62 µM | GI50 (TK-10 renal) 7.04 µM | GI50 (U251 CNS) 0.61 µM | GI50 (UACC-62 melanoma) 2.18 µM | GI50 (UO-31 renal) 9.93 µM
8.48 µM: TGI (HL-60(TB) leukemia)
54 µM: TGI (A498 renal)
74 µM: TGI (MALME-3M melanoma)
53.5 µM: TGI (KM12 colon)
86.5 µM: TGI (786-0 renal)
> 100 µM: TGI (A549 NSCLC) | TGI (ACHN renal) | TGI (CAKI-1 renal) | TGI (CCRF-CEM leukemia) | TGI (COLO 205 colon) | TGI (DU-145 prostate) | TGI (HCT-15 colon) | TGI (HOP-62 NSCLC) | TGI (IGROV1 ovarian) | TGI (K-562 leukemia) | TGI (LOX IMVI melanoma) | TGI (MCF7 breast) | TGI (MOLT-4 leukemia) | TGI (NCI-H226 lung) | TGI (NCI-H23 lung) | TGI (OVCAR-4 ovarian) | TGI (OVCAR-5 ovarian) | TGI (OVCAR-8 ovarian) | TGI (PC-3 prostate) | TGI (SF-268 CNS) | TGI (SF-295 CNS) | TGI (SK-MEL-28 melanoma) | TGI (SK-OV-3 ovarian) | TGI (SN12C renal) | TGI (SNB-19 CNS) | TGI (SW-620 colon) | TGI (T-47D breast) | TGI (U251 CNS) | TGI (UACC-62 melanoma) | TGI (UO-31 renal)
5.72 µM: TGI (SK-MEL-2 melanoma)
26.9 µM: TGI (SK-MEL-5 melanoma)
3.53 µM: TGI (SF-539 CNS)
28.5 µM: TGI (RPMI-8226 leukemia)
29.9 µM: TGI (HCC-2998 colon)
73.5 µM: TGI (NCI/ADR-RES ovarian)
34.4 µM: TGI (HCT-116 colon)
44.8 µM: TGI (OVCAR-3 ovarian)

Cc1cccc(C)c1NC(=O)/C(Cc1nc2ccc([N+](=O)[O-])cc2[nH]c1=O)=N\NC(N)=O
> 100 µM: TGI (786-0 renal) | TGI (A498 renal) | TGI (A549 NSCLC) | TGI (ACHN renal) | TGI (BT-549 breast) | TGI (CAKI-1 renal) | TGI (CCRF-CEM leukemia) | TGI (COLO 205 colon) | TGI (DU-145 prostate) | TGI (EKVX NSCLC) | TGI (HCC-2998 colon) | TGI (HCT-116 colon) | TGI (HCT-15 colon) | TGI (HL-60(TB) leukemia) | TGI (HOP-92 NSCLC) | TGI (HS 578T breast) | TGI (HT29 colon) | TGI (IGROV1 ovarian) | TGI (K-562 leukemia) | TGI (KM12 colon) | TGI (LOX IMVI melanoma) | TGI (M14 melanoma) | TGI (MALME-3M melanoma) | TGI (MCF7 breast) | TGI (MDA-MB-231 breast) | TGI (MDA-MB-435) | TGI (MOLT-4 leukemia) | TGI (NCI-H226 lung) | TGI (NCI-H23 lung) | TGI (NCI-H460 lung) | TGI (NCI-H522 lung) | TGI (NCI/ADR-RES ovarian) | TGI (OVCAR-3 ovarian) | TGI (OVCAR-4 ovarian) | TGI (OVCAR-5 ovarian) | TGI (OVCAR-8 ovarian) | TGI (PC-3 prostate) | TGI (RPMI-8226 leukemia) | TGI (SF-268 CNS) | TGI (SF-295 CNS) | TGI (SF-539 CNS) | TGI (SK-MEL-2 melanoma) | TGI (SK-MEL-28 melanoma) | TGI (SK-MEL-5 melanoma) | TGI (SK-OV-3 ovarian) | TGI (SN12C renal) | TGI (SNB-19 CNS) | TGI (SNB-75 CNS) | TGI (SW-620 colon) | TGI (T-47D breast) | TGI (TK-10 renal) | TGI (U251 CNS) | TGI (UACC-257 melanoma) | TGI (UACC-62 melanoma) | TGI (UO-31 renal)
